Measured values reported in patent US9839638B2, “Compositions and methods for protecting cells during cancer chemotherapy and radiotherapy” (Wisconsin Alumni Research Foundation, priority 2000, dated 2017).

Legend:
[1] = test system: CTX induced alopecia in 7 day old rat pups; experiment: Prevention of cytoxan (CTX)-induced alopecia by topical chemoprotective inducers in rat pups; assay type: in vivo, Sprague Dawley rats; settings: for alopecia when delivered in minoxidil vehicle (propylene glycol:ethanol:water): minoxidil carrier, compared with CTX-treated pups without inducer; for protective effect against CTX-induced hair loss (hair density): topical in nonionic liposomes day -2 to day 6, CTX i.p. day 0, scored day 7, 100% = untreated control pups
[2] = test system: chemoprotective/stress-related genes (GST-PI, GST-Mu2, GST-Ya, GST) in rat pup skin; experiment: Rat stress gene cDNA expression array on skin samples of treated rat pups; assay type: in vivo; settings: topical 15 mM for 5 days; compared to rat pups treated with cytoxan
Method: In brief, rat pups were treated with either CTX or B-NF and at different time intervals skin samples were collected and total RNA was extracted from them. The RNA was reverse transcribed to form the respective cDNAs in the presence of ^32P dATP using primers specific for stress-related genes. The radiolabeled cDNA synthesized was used to probe a rat stress gene cDNA expression array consisting of 207 stress-related genes (Clontech) according to the manufacturer's protocol. The hybridized membrane was exposed to a phosphorimager screen and the image obtained was aligned with an orientation grid to identify the genes that are expressed. Images from control, CTX, treated and B-NF-treated animals were compared to determine the changes, if any, in the expression pattern of chemoprotective genes under these experimental conditions.

[3] = test system: 7 day old rat pups (hair loss); settings: 40 μg/gm CTX i.p., 7 day old pups, examined seven days after
Method: Lactating Sprague Dawley rats with 12 pups per mother were purchased from Harlan Sprague Dawley. To produce CTX induced alopecia, several concentrations (35, 40 45 μg/gm body weight) of CTX in water were injected i.p. in to 7 day old pups. Seven days after CTX treatment the pups were examined to determine the degree of hair loss. The pups were gently brushed on the back to remove the loose hair sticking onto the skin and photographed. The density of hair on the pups was then determined.

SMILES | protective effect against CTX-induced hair loss (hair density) [1] [%] | further results
O=c1cc(-c2ccccc2)oc2ccc3ccccc3c12 [B-NF, β-naphthoflavone] | 80 | protective effect when applied only on the day before cytoxan ([1]; applied only on the day before cytoxan): substantial protective effect; alopecia when delivered in minoxidil vehicle (propylene glycol:ethanol:water) [1]: as severe as the untreated CTX-treated rat pups; alopecia when delivered in minoxidil vehicle (propylene glycol:ethanol:water) ([1]; listed as BNF): hair loss equivalent to that observed in cytoxan-treated animals not pre-treated; expression level of GST-PI, GST-Mu2, GST-Ya and GST (rat homolog of human) in skin [2]: significant increase
COc1ccc(O)c(C(C)(C)C)c1 [BHA] | 60 | 
O=P1(N(CCCl)CCCl)NCCCO1 (stereo not shown) [CTX] |  | hair loss induced [3]: 100%
Cc1c(-c2cnccn2)ssc1=S [Oltipraz] | 50 | 
C[S+]([O-])CCCCN=C=S (stereo not shown) [sulphoraphane] | 5 | 
CC(C)(C)c1cc(O)ccc1O [tBHQ, tert-butylhydroquinone] | 10 | 
